Data taken from patent US20110269811A1, “INHIBITORS OF SEMICARBAZIDE-SENSITIVE AMINE OXIDASE (SSAO) AND VAP-1 MEDIATED ADHESION USEFUL FOR TREATMENT AND PREVENTION OF DISEASES” (priority 2006, published 2011).
Counter-ions that a name gives are not always drawn.

How the values were obtained:
Human SSAO = target: T1, Human SSAO (Homo sapiens, UniProt Q16853); assay: In vitro inhibition of SSAO activity, human umbilical cord homogenate, 14C-benzylamine; type: biochemical; conditions: human umbilical cord homogenate; read-out: Human SSAO IC50
T1 construct: rat lung or human umbilical cord homogenates were prepared by chopping the freshly removed tissue; from tissue; host or cells: human umbilical cord homogenate (25,000 g supernatant)
T1 sequence (Q16853 1-763): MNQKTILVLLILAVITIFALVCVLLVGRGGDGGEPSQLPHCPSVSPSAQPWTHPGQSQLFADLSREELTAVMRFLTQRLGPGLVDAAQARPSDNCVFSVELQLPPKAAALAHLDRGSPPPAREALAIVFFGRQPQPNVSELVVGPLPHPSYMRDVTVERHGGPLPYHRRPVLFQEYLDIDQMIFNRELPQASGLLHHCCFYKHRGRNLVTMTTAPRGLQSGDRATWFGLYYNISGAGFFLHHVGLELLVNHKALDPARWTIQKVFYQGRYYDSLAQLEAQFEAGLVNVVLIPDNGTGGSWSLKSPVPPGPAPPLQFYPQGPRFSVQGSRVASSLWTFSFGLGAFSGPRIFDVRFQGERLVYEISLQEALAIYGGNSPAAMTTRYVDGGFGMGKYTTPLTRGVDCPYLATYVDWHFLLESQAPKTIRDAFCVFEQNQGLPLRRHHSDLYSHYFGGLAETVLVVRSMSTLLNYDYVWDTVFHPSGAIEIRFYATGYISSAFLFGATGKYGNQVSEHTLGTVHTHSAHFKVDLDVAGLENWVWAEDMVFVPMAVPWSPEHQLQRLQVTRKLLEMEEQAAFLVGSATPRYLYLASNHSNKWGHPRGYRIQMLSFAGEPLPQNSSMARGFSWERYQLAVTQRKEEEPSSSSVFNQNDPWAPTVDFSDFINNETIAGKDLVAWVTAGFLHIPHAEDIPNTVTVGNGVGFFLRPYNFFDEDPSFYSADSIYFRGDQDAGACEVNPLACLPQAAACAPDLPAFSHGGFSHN
Experimental: SSAO activity was measured as described (Lizcano J M. Et al. (1998) Biochem J. 331:69). Briefly, rat lung or human umbilical cord homogenates were prepared by chopping the freshly removed tissue into small pieces and washing them thoroughly in PBS. The tissue was then homogenized 1:10 (w/v) for lung or 1:5 (w/v) for umbilical cord, in 10 mM potassium phosphate buffer (pH 7.8). Homogenates were then centrifuged at 1000 g at 4° C. for 10 min (lung) or 25,000 g for 30 min (umbilical cord); the supernatants were kept frozen until ready to use. Lung or umbilical cord homogenate was preincubated with clorgyline and pargyline at 1 μM to inhibit MAO-A and -B activity, respectively, and SSAO inhibitors were generally present at 1 nM-10 μM. The reaction was initiated by addition of 20 μM ^14C— benzylamine as substrate. The reaction was carried out at 37° C. in a final volume of 400 μL of 100 mM potassium phosphate buffer (pH 7.2) and stopped with 100 μl of 2M citric acid. Radioactively labeled products were extracted into toluene/ethyl acetate (1:1, v/v) containing 0.6% (w/v) 2,5-diphenyloxazole (PPO) before liquid scintillation counting.

Recombinant human MAO-A = target: T2, Recombinant human MAO-A (Homo sapiens, UniProt P21397); assay: MAO-A activity, colorimetric method, tyramine substrate; type: biochemical; conditions: for Specificity of SSAO on MAO-A: ratio of IC50 for MAO-A to IC50 for SSAO; for IC50: recombinant human MAO-A
T2 construct: purchased BD Biosciences (MA, USA)
T2 sequence (P21397 1-527): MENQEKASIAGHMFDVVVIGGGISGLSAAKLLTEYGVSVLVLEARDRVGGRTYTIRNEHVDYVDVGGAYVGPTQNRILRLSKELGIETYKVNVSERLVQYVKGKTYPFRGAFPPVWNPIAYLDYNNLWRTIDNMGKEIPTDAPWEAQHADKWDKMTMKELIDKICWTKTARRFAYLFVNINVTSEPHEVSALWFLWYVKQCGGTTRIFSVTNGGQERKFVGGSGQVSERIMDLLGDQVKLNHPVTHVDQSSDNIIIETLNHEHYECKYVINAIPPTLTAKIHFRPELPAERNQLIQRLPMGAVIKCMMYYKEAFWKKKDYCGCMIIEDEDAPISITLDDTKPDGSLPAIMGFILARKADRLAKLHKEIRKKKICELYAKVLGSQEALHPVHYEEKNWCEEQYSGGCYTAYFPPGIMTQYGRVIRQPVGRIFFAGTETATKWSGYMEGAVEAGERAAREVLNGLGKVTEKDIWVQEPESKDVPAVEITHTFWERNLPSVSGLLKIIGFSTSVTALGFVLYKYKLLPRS
Experimental: The specificities of the different SSAO inhibitors was tested by determining their abilities to inhibit MAO-A and MAO-B activities in vitro. Recombinant human MAO-A and human MAO-B enzymes were obtained from BD Biosciences (MA, USA). MAO activity was measured using the colorimetric method essentially as described (Holt, A. et al. (1997) Anal. Biochem. 244: 384). A pre-determined amount of inhibitor diluted in 0.2M potassium phosphate buffer, pH 7.6, was added to each well, if required. The amount of inhibitor varied in each assay but was generally at a final concentration of between 1 nM and 1 mM. Controls lacked inhibitor. The following agents were then added to a final reaction volume of 200 μL in 0.2M potassium phosphate buffer, pH 7.6: 0.04 mg/ml of MAO-A or 0.07 mg/ml MAO-B enzyme, 15 μL of 10 mM tyramine substrate (for MAO-A), or 15 μL 100 mM benzylamine substrate (for MAO-B), and 50 μL of freshly made chromogenic solution. The chromogenic solution contained 750 μM vanillic acid (Sigma#V-2250), 400 μM 4-aminoantipyrine (Sigma #A-4328) and 12 U/mL horseradish peroxidase (Sigma #P-8250) in order to cause a change of 0.5 OD A490 nm/h. This was within the linear response range for the assay. The plates were incubated for 60 min at 37° C. The increase in absorbance, reflecting MAO activity, was measured at 490 nm using microplate spectrophotometer (Power Wave 40, Bio-Tek Inst.). Inhibition was presented as percent inhibition compared to control after correcting for background absorbance and IC50 values calculated using GraphPad Prism software. Clorgyline and pargyline (inhibitors of MAO-A and -B, respectively) at 1 μM, were added to some wells as positive controls for MAO inhibition. […] The compounds described in the present invention are therefore expected to have therapeutic utility in the treatment of diseases and conditions in which the activity of SSAO/VAP-1 plays a role, that is, in SSAO/VAP-1 mediated diseases and conditions.

COc1cccc(C/C=C(/F)CN)c1.Cl [II-8-E, (E)-2-Fluoro-4-(3-methoxyphenyl)-2-butenylamine hydrochloride]
IC50 (Human SSAO): 0.022 µM
Specificity of SSAO on MAO-A (Recombinant human MAO-A): 50000
IC50 (Recombinant human MAO-A): 1100 µM

Cl.NC/C(F)=C\Cc1ccccc1 [II-9-E, (E)-2-Fluoro-4-phenyl-2-butenylamine hydrochloride]
IC50 (Human SSAO): 0.099 µM
Specificity of SSAO on MAO-A (Recombinant human MAO-A): 12120
IC50 (Recombinant human MAO-A): 1200 µM

Cl.NC/C(F)=C\Cc1cccc(OC(F)(F)F)c1 [II-10-E, (E)-2-Fluoro-4-(3-trifluoromethoxyphenyl)-2-butenylamine hydrochloride]
IC50 (Human SSAO): 0.018 µM
Specificity of SSAO on MAO-A (Recombinant human MAO-A): 48330
IC50 (Recombinant human MAO-A): 870 µM

CN(C)c1cccc(C/C=C(/F)CN)c1.Cl [II-11-E, (E)-2-Fluoro-4-(3-dimethylaminophenyl)-2-butenylamine hydrochloride]
IC50 (Human SSAO): 0.11 µM
Specificity of SSAO on MAO-A (Recombinant human MAO-A): 2600
IC50 (Recombinant human MAO-A): 286 µM

CSc1cccc(C/C=C(/F)CN)c1.Cl [II-13-E, (E)-2-Fluoro-4-(3-methylthiophenyl)-2-butenylamine hydrochloride]
IC50 (Human SSAO): 0.01 µM
Specificity of SSAO on MAO-A (Recombinant human MAO-A): 100000

CS(=O)(=O)c1cccc(C/C=C(/F)CN)c1.Cl [II-14-E, (E)-2-Fluoro-4-(3-methanesulfonylphenyl)-2-butenylamine hydrochloride]
IC50 (Human SSAO): 0.07 µM
Specificity of SSAO on MAO-A (Recombinant human MAO-A): 14290

Cl.NC/C(F)=C\Cc1cccc(SC(F)(F)F)c1 [II-15-E, (E)-2-Fluoro-4-(3-trifluoromethylthiophenyl)-2-butenylamine hydrochloride]
IC50 (Human SSAO): 0.023 µM
Specificity of SSAO on MAO-A (Recombinant human MAO-A): >34780
IC50 (Recombinant human MAO-A): > 800 µM

COc1cccc(C/C(C)=C(/F)CN)c1 [II-18-E, hydrochloride]
IC50 (Human SSAO): 0.29 µM
Specificity of SSAO on MAO-A (Recombinant human MAO-A): >3448
IC50 (Recombinant human MAO-A): > 1000 µM

COc1cccc(OC/C=C(/F)CN)c1 [II-19-E, (E)-2-fluoro-4-(3-methoxyphenoxy)but-2-en-1-amine]
IC50 (Human SSAO): 0.16 µM
Specificity of SSAO on MAO-A (Recombinant human MAO-A): >6250
IC50 (Recombinant human MAO-A): > 1000 µM
